The values below come from ChEMBL document CHEMBL4251635, “Identification and development of benzoxazole derivatives as novel bacterial glutamate racemase inhibitors” (Eur J Med Chem, 2018).

≈ marks a conversion by molar mass, not a printed value.

The subject of series [1] is Mycobacterium marinum. The series can be described thus: Antimycobacterial activity against Mycobacterium marinum ATCC BAA-535 infected in zebrafish at 5 mg/kg, po treated for 7 days by MPN assay. The series is classed as functional.
For series [2], the system named is Mycobacterium tuberculosis. The series can be described thus: Antimycobacterial activity against Mycobacterium tuberculosis H37Rv dormant stage assessed as log reduction in bacterial load at 10 ug/ml incubated for 7 days. The format is functional.
In series [3] the test system is Mycobacterium tuberculosis. The series can be described thus: Antimycobacterial activity against replicating Mycobacterium tuberculosis H37Rv incubated for 1 week by MABA method. The format is functional. Conditions: 168 h.
The test system of series [4] is Mycobacterium tuberculosis. The series can be described thus: Antimycobacterial activity against replicating Mycobacterium tuberculosis H37Rv incubated for 1 week in presence of piperine by MABA method. The format is functional. The settings on record: 168 h. In general terms: Resazurin is reduced to fluorescent resorufin, in cell work by metabolically active cells.

Series [5] has as its system Mycobacterium tuberculosis. Put plainly: Antimycobacterial activity against replicating Mycobacterium tuberculosis H37Rv incubated for 1 week in presence of verapamil by MABA method. The format is functional. The settings on record: 168 h.
In series [6] the test system is Mycobacterium tuberculosis. The series can be described thus: Antibiofilm activity against Mycobacterium tuberculosis H37Rv assessed as log reduction in bacterial load at 10 ug/ml incubated for 1 week by MPN assay. The series is classed as functional.
The test system of the next series is RAW264.7. Put plainly: Cytotoxicity against mouse RAW264.7 cells assessed as reduction in cell viability at 25 uM after 48 hrs by MTT assay relative to control. The series is classed as cell-based. Conditions: raw264.7, 48 h. (In general: Formazan colour is commonly taken as a measure of viable cells.)
Series [7] addresses T1, Glutamate racemase (Mycobacterium tuberculosis (strain ATCC 25618 / H37Rv)) (UniProt P9WPW9).
T1 sequence (whole entry): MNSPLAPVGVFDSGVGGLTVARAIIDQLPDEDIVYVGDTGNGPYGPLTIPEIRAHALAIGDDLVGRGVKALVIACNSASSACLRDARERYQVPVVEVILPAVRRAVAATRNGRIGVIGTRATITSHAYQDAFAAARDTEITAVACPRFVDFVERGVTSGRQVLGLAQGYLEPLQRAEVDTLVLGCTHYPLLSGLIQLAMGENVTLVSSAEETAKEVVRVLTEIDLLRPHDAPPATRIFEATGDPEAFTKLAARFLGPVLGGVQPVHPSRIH
Put plainly: Stabilization of Mycobacterium tuberculosis glutamate racemase bound to D-glutamate assessed as melting temperature by sypro-orange dye-based fluorescence assay (reference value: 45.1 degreeC).

The subject of series [8] is Mycobacterium tuberculosis. The series can be described thus: Bactericidal activity against Mycobacterium tuberculosis H37Rv dormant stage up to 21 days by time kill assay. The series is classed as functional. The settings on record: 504 h.
Series [9] concerns Mycobacterium tuberculosis. Put plainly: Ratio of MIC for Mycobacterium tuberculosis H37Rv to MIC for Mycobacterium tuberculosis H37Rv in presence of verapamil. The series is classed as functional.
Series [10] deals with T1, Glutamate racemase (Mycobacterium tuberculosis (strain ATCC 25618 / H37Rv)). Put plainly: Stabilization of Mycobacterium tuberculosis glutamate racemase assessed as melting temperature by sypro-orange dye-based fluorescence assay (reference value: 43.7 degreeC).
Series [11] concerns Mycobacterium marinum. The series can be described thus: Antimycobacterial activity against Mycobacterium marinum ATCC BAA-535 infected in zebrafish at 10 mg/kg, po treated for 7 days by MPN assay. The format is functional.
Series [12] deals with Mycobacterium tuberculosis. The series can be described thus: Bactericidal activity against Mycobacterium tuberculosis H37Rv dormant stage at 5 to 20 uM by time kill assay. The format is functional, organism-based. The settings on record: TDE = time-dependent effect.
Series [13] has as its target T1, Glutamate racemase (Mycobacterium tuberculosis (strain ATCC 25618 / H37Rv)). Put plainly: Stabilization of Mycobacterium tuberculosis glutamate racemase bound to D-glutamate assessed as change in melting temperature by sypro-orange dye-based fluorescence assay.
Series [14] shares this target. Put plainly: Stabilization of Mycobacterium tuberculosis glutamate racemase assessed as change in melting temperature by sypro-orange dye-based fluorescence assay.

As for `NNC(=O)c1ccncc1` [ISONIAZID], the “log(activity)” value in the series on Mycobacterium marinum [1] amounted to 2.5; in series [2], 1.4; in [6], 1.2. Moreover, the results for the MIC in series [3], in series [4] and in [5] were 0.78 µM (≈ 0.107 µg/mL), 0.78 µM and 0.78 µM, respectively.
With `O=C(Nc1ccc(F)cc1)Nc1cccc(-c2nc3ccccc3o2)c1`, in the series with RAW264.7, the Activity is recorded as 2.98%. Further, the minimum inhibitory concentration (MIC) was found to be 72.1 µM (≈ 25.1 µg/mL) in series [3], 72.1 µM in series [4] and 72.1 µM in [5].
As to `S=C(NCc1ccccc1)Nc1cccc(-c2nc3ccccc3o2)c1`, the Activity in the series with RAW264.7 was 47.21%. The MIC in series [3] amounted to 69.2 µM (≈ 24.9 µg/mL); in [4] it was 2.21 µM; in [5], 2.21 µM.
On to `COc1c(N2C[C@@H]3CCCN[C@@H]3C2)c(F)cc2c(=O)c(C(=O)O)cn(C3CC3)c12` [MOXIFLOXACIN], for which the “log(activity)” value amounted to 2.4 in the series on Mycobacterium marinum [1], 0.3 in [2] and 2 in [6].
As to `O=C(Nc1ccccc1)Nc1cccc(-c2nc3ccccc3o2)c1`, the Activity with RAW264.7 worked out at 48.38%. The compound also returned a minimum inhibitory concentration (MIC) in series [3] of 75.1 µM (≈ 24.7 µg/mL).
Take `Cc1ccc2oc(-c3cccc(NC(=S)Nc4ccc(Cl)cc4)c3)nc2c1`: the “log(activity)” value in [2] is given as 2.5; with Mycobacterium marinum [11] it was 3.4; in series [6], 2.4. Also, the Activity in the series with RAW264.7 is 55.82%; in series [12], “Tde”. Also, the Tm is 51.9 °C in [7] and 49.8 °C in series [10]. Besides, in [8], the MBC worked out at 25.4 µM (≈ 10 µg/mL). The Ratio in series [9] is listed as 4. The minimum inhibitory concentration (MIC) in [3] came out at 8.72 µM (≈ 3.43 µg/mL); in series [4] it was 2.01 µM; in [5], 2.01 µM.
`Cc1ccc2oc(-c3cccc(NC(=O)NCc4ccccc4)c3)nc2c1`: the ΔTm in series [13] was found to be 2 °C; in series [14], 3.2 °C.
As for `CO[C@H]1/C=C/O[C@@]2(C)Oc3c(C)c(O)c4c(O)c(c(/C=N/N5CCN(C)CC5)c(O)c4c3C2=O)NC(=O)/C(C)=C\C=C\[C@H](C)[C@H](O)[C@@H](C)[C@@H](O)[C@@H](C)[C@H](OC(C)=O)[C@@H]1C` [RIFAMPIN], the results for the “log(activity)” value in [2] and in [6] were 0.8 and 1.5, respectively. Also, the values for the minimal inhibitory concentration (MIC) in [3], in series [4] and in series [5] were 0.21 µM (≈ 0.173 µg/mL), 0.21 µM and 0.21 µM, respectively.
Turning to `S=C(Nc1ccc(Cl)cc1)Nc1cccc(-c2nc3ccccc3o2)c1`, the Activity in the series on RAW264.7 is 22.81%. The compound further showed an MIC in series [3] of 63.9 µM (≈ 24.3 µg/mL).
As to `Cc1ccc2oc(-c3cccc(NC(=O)Nc4ccccc4)c3)nc2c1`, the Activity in the series with RAW264.7 was determined as 10.15%. In addition, the values for the minimum inhibitory concentration (MIC) in series [3], in series [4] and in [5] were 72.9 µM (≈ 25 µg/mL), 72.9 µM and 72.9 µM, respectively.
In the case of `CC(C)c1ccc(NC(=O)Nc2cccc(-c3nc4ccccc4o3)c2)cc1`, in the series on RAW264.7, the Activity is 3.52%. The compound also showed a minimum inhibitory concentration (MIC) in series [3] of 81.2 µM (≈ 30.2 µg/mL).
Turning to `Fc1ccc(NC(=S)Nc2cccc(-c3nc4ccccc4o3)c2)cc1`, the entries for the “log(activity)” value in [2] and in series [6] were 0.2 and 0.4, respectively. The Activity in the series with RAW264.7 is given as 96.02%. In addition, the minimum bactericidal concentration (MBC) in series [8] turned out to be 27.5 µM (≈ 9.98 µg/mL). Also, in series [3], the MIC worked out at 4.37 µM (≈ 1.59 µg/mL).
Take `S=C(Nc1ccccc1)Nc1cccc(-c2nc3ccccc3o2)c1`: the Activity in the series with RAW264.7 is reported as 96.23%. This compound also returned a minimal inhibitory concentration (MIC) in [3] of 19.3 µM (≈ 6.67 µg/mL).
Consider `Cc1ccc2oc(-c3cccc(NC(=S)Nc4ccc(F)cc4)c3)nc2c1`, for which the “log(activity)” value stood at 2.5 in [2] and 0.8 in [6]. Also, in the series with RAW264.7, the Activity was 81.92%. Besides, in series [3], the minimal inhibitory concentration (MIC) stood at 2.16 µM (≈ 0.815 µg/mL).
Turning to `Cc1ccc(NC(=S)Nc2cccc(-c3nc4ccccc4o3)c2)cc1`, the Activity in the series with RAW264.7 is reported as 99.14%. In [3], this compound showed an MIC of 69.5 µM (≈ 25 µg/mL).
In the same order, the values of `O=C(NCc1ccccc1)Nc1cccc(-c2nc3ccccc3o2)c1` are 2.12% and 72.8 µM (≈ 25 µg/mL).
On to `COc1ccc(NC(=O)Nc2cccc(-c3nc4ccccc4o3)c2)cc1`, for which, in the series on RAW264.7, the Activity is 17.26%. Moreover, the MIC in series [3] was 69.3 µM (≈ 24.9 µg/mL); in [4], 69.3 µM; in series [5], 69.3 µM.
As to `O=[N+]([O-])c1ccc(NC(=S)Nc2cccc(-c3nc4ccccc4o3)c2)cc1`, the “log(activity)” value in series [2] was determined as 2.5; in series [6], 0.8. The Activity in the series with RAW264.7 was 88.12%. This compound also returned a minimal inhibitory concentration (MIC) in [3] of 2.09 µM (≈ 0.816 µg/mL).
Turning to `Cc1ccc2oc(-c3cccc(NC(=S)Nc4ccc([N+](=O)[O-])cc4)c3)nc2c1`, in the series on RAW264.7, the Activity is reported as 98.1%. For the same compound, the minimal inhibitory concentration (MIC) in series [3] is 61.9 µM (≈ 25 µg/mL); in series [4], 1.91 µM; in [5], 1.91 µM.
With `Cc1ccc2oc(-c3cccc(NC(=S)Nc4ccccc4)c3)nc2c1`, the Activity in the series with RAW264.7 worked out at 87.32%. In addition, the MIC in [3] came out at 69.6 µM (≈ 25 µg/mL); in series [4], 8.69 µM; in series [5], 8.69 µM.
Take `COc1ccc(NC(=O)Nc2cccc(-c3nc4cc(C)ccc4o3)c2)cc1`: the Activity with RAW264.7 is reported as 11.09%. The same compound came in with a minimal inhibitory concentration (MIC) in [3] of 67.9 µM (≈ 25.4 µg/mL).
For `O=C(Nc1ccc([N+](=O)[O-])cc1)Nc1cccc(-c2nc3ccccc3o2)c1` the same measures were 95.11% and 67 µM (≈ 25.1 µg/mL).
For `O=C(Nc1ccc(Cl)cc1)Nc1cccc(-c2nc3ccccc3o2)c1` the same measures were 38.91% and 68.3 µM (≈ 24.9 µg/mL).
With `Cc1ccc(NC(=S)Nc2cccc(-c3nc4cc(C)ccc4o3)c2)cc1`, in the series on RAW264.7, the Activity was 2.12%. In addition, the results for the MIC in series [3], in [4] and in series [5] were 77 µM (≈ 28.8 µg/mL), 77 µM and 77 µM, respectively.
As to `Cc1ccc2oc(-c3cccc(NC(=O)Nc4ccc(F)cc4)c3)nc2c1`, the Activity in the series with RAW264.7 was 3.17%. Moreover, it took 69.3 µM (≈ 25.1 µg/mL) to inhibit growth in series [3] (MIC).
For the compound `CC[C@@H](CO)NCCN[C@@H](CC)CO` [ETHAMBUTOL], the MIC in series [3] was found to be 7.89 µM (≈ 1.61 µg/mL); in [4], 3.82 µM; in [5], 3.82 µM.
Turning to `Cc1ccc2oc(-c3cccc(NC(=S)NCc4ccccc4)c3)nc2c1`, in the series on RAW264.7, the Activity turned out to be 38.91%. The compound also yielded a minimal inhibitory concentration (MIC) in [3] of 2.05 µM (≈ 0.766 µg/mL).
In the same order, the values of `Cc1ccc2oc(-c3cccc(NC(=O)Nc4ccc(Cl)cc4)c3)nc2c1` are 1.09% and 66.3 µM (≈ 25.1 µg/mL).
Regarding `Cc1ccc(NC(=O)Nc2cccc(-c3nc4ccccc4o3)c2)cc1`, in the series with RAW264.7, the Activity was determined as 1.09%. The results for the MIC in series [3], in series [4] and in series [5] were 36.2 µM (≈ 12.4 µg/mL), 36.2 µM and 36.2 µM, respectively.

A word on the MIC: it is the lowest concentration that inhibits growth of the organism. As usually defined, the MBC is the lowest tested concentration that kills the bacteria rather than only halting them. As a reminder, the ΔTm is the change in melting temperature against a reference sample.
